Measured values reported in the OligoGym collection.
Values joined by “and” are separate entries in the source; they are usually repeats but may differ in a detail not shown here. Equal entries are not always repeated. After the bases stand the sugars from the 5' end (letter, count) and the backbone: PS all phosphorothioate, else s phosphorothioate and o phosphodiester by linkage. Methylation of C is not given here. k = constrained ethyl (cEt); d = 2'-deoxy (DNA)

Target: MALAT1
Conditions: ASO, A431, 0.005 µM

| Sequence | target mRNA inhibition |
| --- | --- |
| GAACTAGTGGTTCCCA (sugars k3 d10 k3, PS) | 46% |
| CTGATAACGAAGAGAT (sugars k3 d10 k3, PS) | -3% |
| GATAGTTCAGGGCTTT (sugars k3 d10 k3, PS) | 10% |
| TGACCCTACTGAAGAG (sugars k3 d10 k3, PS) | 21% |
| ACAGGAACAAGTCCTA (sugars k3 d10 k3, PS) | 10% |
| TTGCTTACACACAACT (sugars k3 d10 k3, PS) | 18% |
| AAGCACTCATATGCAA (sugars k3 d10 k3, PS) | -2% |
| CTGATTATCCTGATAT (sugars k3 d10 k3, PS) | 33% |
| GTAACAGGCCACTGCC (sugars k3 d10 k3, PS) | 14% |
| AATCGGAGCAGCACGG (sugars k3 d10 k3, PS) | 26% |
| GCCGCAGGGATTTGAA (sugars k3 d10 k3, PS) | 31% |
| AATAGCAGCGGGATCA (sugars k3 d10 k3, PS) | 34% |
| TCTTGAAGACTGTTGC (sugars k3 d10 k3, PS) | 44% |
| CTGAGTGAAGTGTACT (sugars k3 d10 k3, PS) | 48% |
| GCATTTACTTGCCAAC (sugars k3 d10 k3, PS) | 11% |
| GAGGTATGACATATAA (sugars k3 d10 k3, PS) | 54% and 49% and 50% |
| CTTTACACCTCAGTAC (sugars k3 d10 k3, PS) | 38% |
| TGCCCAAATTAATGCA (sugars k3 d10 k3, PS) | 29% |
| TAGACCAACTAAGCGA (sugars k3 d10 k3, PS) | -9% |
| CTTTTAATCATACTCC (sugars k3 d10 k3, PS) | 16% |
| TATAGCTTGACAAGCA (sugars k3 d10 k3, PS) | 19% |
| AAGTAGTTCTTCGGTT (sugars k3 d10 k3, PS) | 10% |
| ACCTGGGCTCCCGGAG (sugars k3 d10 k3, PS) | 19% |

| Sequence | target mRNA inhibition |
| --- | --- |
| CAATTAATGCTAGTCC (sugars k3 d10 k3, PS) | 28% |
| AAGGATGTATATAGTT (sugars k3 d10 k3, PS) | 21% |
| GTACACCCAGTGGCTC (sugars k3 d10 k3, PS) | 6% |
| AGTTTTCAGCAGTAGG (sugars k3 d10 k3, PS) | -21% |
| GAATCTCAGGGTTATG (sugars k3 d10 k3, PS) | 57% and 76% |
| ACGGATTTTTACCAAC (sugars k3 d10 k3, PS) | 34% |
| AAAAGCTTGTTCACCT (sugars k3 d10 k3, PS) | 21% |
| GGAGAGGCCAGTTGCG (sugars k3 d10 k3, PS) | -10% |
| GGCTCATATTTAACTT (sugars k3 d10 k3, PS) | 20% |
| TTTGAGTATGCTGATA (sugars k3 d10 k3, PS) | 47% |
| AGTTACTCCAGCATAA (sugars k3 d10 k3, PS) | 31% |
| TCTTACTGGGTCTGGC (sugars k3 d10 k3, PS) | 45% |
| CTTCTCTAACCCAGTT (sugars k3 d10 k3, PS) | 15% |
| TACGACTGCTTAAAAC (sugars k3 d10 k3, PS) | 5% |
| ATTTATAGACGGAGAA (sugars k3 d10 k3, PS) | 9% |
| GAAAGCGAGTTCAAGT (sugars k3 d10 k3, PS) | -1% |
| ATGGAACTTGAATGCA (sugars k3 d10 k3, PS) | 1% |
| ACCTCCGTCATGTTTT (sugars k3 d10 k3, PS) | 43% |
| ATCATTAAGCCACTTC (sugars k3 d10 k3, PS) | 53% and 69% |
| TTAAATTGATGGGCTT (sugars k3 d10 k3, PS) | 22% |
| AGATTAAAGTGTGATA (sugars k3 d10 k3, PS) | 27% |
| ATCCAAGCTACTGGCT (sugars k3 d10 k3, PS) | 40% |
| CTGGGTCAGCTGTCAA (sugars k3 d10 k3, PS) | 33% |

| Sequence | target mRNA inhibition |
| --- | --- |
| TCGGTGCCTTTAGTGA (sugars k3 d10 k3, PS) | 29% |
| TCCCCTTCAAGCACCG (sugars k3 d10 k3, PS) | 19% |
| CACCGGAATTCGATCA (sugars k3 d10 k3, PS) | 20% |
| CACCTTCGGTTTAATC (sugars k3 d10 k3, PS) | 20% |
| CTCCCCCAACTGCTTG (sugars k3 d10 k3, PS) | 22% |
| CCCCAACTAAACATAC (sugars k3 d10 k3, PS) | 26% |
| TCTAACATAGTTCAAC (sugars k3 d10 k3, PS) | 29% |
| CTAAATCATTGGGAGT (sugars k3 d10 k3, PS) | 48% |
| ACCCAGTTTGTCAATA (sugars k3 d10 k3, PS) | 10% |
| AGAGGGCCTCTATTGC (sugars k3 d10 k3, PS) | 33% |
| CCTGTGGTGGTCTGAT (sugars k3 d10 k3, PS) | 54% |
| CCTTTTAAAGTAGACC (sugars k3 d10 k3, PS) | -22% |
| CACTTATCCCTAACAT (sugars k3 d10 k3, PS) | 10% |
| GGCAAACGAAACATTG (sugars k3 d10 k3, PS) | 35% |
| ACTGAAAACTCCCCCC (sugars k3 d10 k3, PS) | -3% |
| GCATTCTAATAGCAGC (sugars k3 d10 k3, PS) | 10% and 21% |
| ACAGAGCTGCTCCCCG (sugars k3 d10 k3, PS) | 18% |
| ATCAGTAGTAAGAATC (sugars k3 d10 k3, PS) | 23% |
| TGCGGTTTCCTCAAGC (sugars k3 d10 k3, PS) | 26% |
| CTCTGCATCTAGGCCA (sugars k3 d10 k3, PS) | 40% |
| TTAAGAGAAGCCCAGG (sugars k3 d10 k3, PS) | 24% |
| ATGGTAGATTCCGTAA (sugars k3 d10 k3, PS) | 14% |
| AGTATCAAATTATGAC (sugars k3 d10 k3, PS) | 14% |

| Sequence | target mRNA inhibition |
| --- | --- |
| TATTTCGGCTTCTTTT (sugars k3 d10 k3, PS) | 47% and 65% |
| CCAAAGACCTCGACAC (sugars k3 d10 k3, PS) | 13% |
| TCCTCAATCCACTTGA (sugars k3 d10 k3, PS) | 44% |
| TTAAATTACACCAGTC (sugars k3 d10 k3, PS) | 50% and 65% |
| AACCAGGAGTGCCAAC (sugars k3 d10 k3, PS) | -23% |
| GATTTGAGCTGCAAAC (sugars k3 d10 k3, PS) | 0% |
| AACAATCACTACTCCA (sugars k3 d10 k3, PS) | 26% |
| ATCATATTTTAAACGG (sugars k3 d10 k3, PS) | 32% |
| TGCTGATAAACTCACT (sugars k3 d10 k3, PS) | 46% |
| GCCCACCCTCTAAGAG (sugars k3 d10 k3, PS) | 18% |
| AAGTCAAGCTCCTGAC (sugars k3 d10 k3, PS) | 4% |
| CATTTTGCCCTTAGCT (sugars k3 d10 k3, PS) | 54% |
| TTACTTTCCATTACGC (sugars k3 d10 k3, PS) | 16% |
| ATCACTACTCCAAGCA (sugars k3 d10 k3, PS) | 20% |
| ACATTCAAGCTGAACT (sugars k3 d10 k3, PS) | -5% |
| TACTATATTTAAGGCC (sugars k3 d10 k3, PS) | 1% |
| AAAGATTTGAGCTGCA (sugars k3 d10 k3, PS) | -4% |
| CATGGAAAGCGAGTTC (sugars k3 d10 k3, PS) | 20% |
| GTTTCCTAGCTTGTCT (sugars k3 d10 k3, PS) | 57% |
| TCGCCTCCTCCGTGTG (sugars k3 d10 k3, PS) | 33% |
| GGATCCTCTACGCACA (sugars k3 d10 k3, PS) | 19% |
| CTCTGATCATAATCTC (sugars k3 d10 k3, PS) | 35% |
| TGAAGTGTACTATCCC (sugars k3 d10 k3, PS) | 72% and 88% |

| Sequence | target mRNA inhibition |
| --- | --- |
| GGAAAGCGAGTTCAAG (sugars k3 d10 k3, PS) | 24% |
| AACTCCCCCCCGCCTC (sugars k3 d10 k3, PS) | 6% |
| GAGTCATTTGCCTTTA (sugars k3 d10 k3, PS) | 73% and 48% |
| ACCTTCCGCCGCCTCT (sugars k3 d10 k3, PS) | 33% |
| AACTCCCCCATTATAT (sugars k3 d10 k3, PS) | -1% |
| AAGTAAGCCCCACCCC (sugars k3 d10 k3, PS) | 37% |
| ATCAAGGCACTGATCA (sugars k3 d10 k3, PS) | 23% |
| CACCTTGAGTCATTTG (sugars k3 d10 k3, PS) | 37% |
| TAGTTCTTCGGTTAAA (sugars k3 d10 k3, PS) | 6% |
| GTGTTCGCAGACAAAG (sugars k3 d10 k3, PS) | 10% |
| GACAGCTAAGATAGCA (sugars k3 d10 k3, PS) | 12% |
| CGGAAATTTTTCTACC (sugars k3 d10 k3, PS) | 8% |
| CAATTTAGAGCTTCTC (sugars k3 d10 k3, PS) | -12% |
| ATCAACAAAAGCCCAC (sugars k3 d10 k3, PS) | -12% |
| GCTCACAAGGCAAATC (sugars k3 d10 k3, PS) | -4% |
| CTGAGGCAAACGAAAC (sugars k3 d10 k3, PS) | -6% |
| ACTTATCTGCGGTTTC (sugars k3 d10 k3, PS) | 71% and 53% |
| TTGAGGCAAGTCCTCA (sugars k3 d10 k3, PS) | 3% |
| CTTTAAGCTGTTTAAG (sugars k3 d10 k3, PS) | -4% |
| CAGGATCATTAAGCCA (sugars k3 d10 k3, PS) | 42% |
| GGTTTTATCTAAATAC (sugars k3 d10 k3, PS) | 25% |
| TCCCATAACTGATCTG (sugars k3 d10 k3, PS) | 31% |
